Measurements taken from PMC5515969, “Effects of 31 FDA approved small-molecule kinase inhibitors on isolated rat liver mitochondria” (Archives of Toxicology, 2016).
Read-outs that look alike come from different tables or passages of the source.

Legend:
[1] = test system: isolated rat liver mitochondria; experiment: Mitochondrial oxygen consumption (glutamate/malate or succinate driven, state 4 and state 3); format: biochemical; conditions: for Glutamate/malate driven respiration State 3 / Glutamate/malate driven respiration State 4 / Succinate-driven respiration State 3 / Succinate-driven respiration State 4: oxygen consumption, DMSO-treated = 1; as to State 3 respiration driven by succinate at 10XCmax: key: 0 indicates that the drug had no effects (negative); as to State 3 respiration driven by succinate at 1XCmax: key: 0 indicates that the drug had no effects (negative)
Method in brief: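 Rat liver mitochondria (1 mg/ml protein) exposed 5 min to kinase inhibitors in 0.1% DMSO, then O2 consumption measured by Clark-type electrode with glutamate/malate or succinate (state 4), ADP added after 3 min (state 3). Rates normalized to 0.1% DMSO controls set to 1.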

[2] = test system: isolated rat liver mitochondria; experiment: Mitochondrial inner membrane potential (MMP), Rhodamine 123; format: biochemical; conditions: difference in signal between KI and DMSO treated samples at the end of experiments
Description: Fig. 3 KI effects on mitochondrial inner membrane potential (MMP). […] In a, c, data are means and standard derivations from three separate experiments. *p < 0.05 as compared to DMSO-treated samples at the end of experiments. In b, data are means of two independent experiments

[3] = target: T1, RCC II (Rattus norvegicus, UniProt P21913+Q641Z9+Q6PCT8+Q920L2); experiment: RCC II activity in submitochondrial particles; format: biochemical; design: key: activity relative to DMSO-treated controls (control set as 1 = 100%)
T1 construct: Submitochondrial particles were prepared by subjecting the intact mitochondria to three successive freeze–thaw cycles; from tissue; host or cells: rat liver mitochondria, used as submitochondrial particles
Method in brief: (§1)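 Inhibitors preincubated 15 min with submitochondrial particles (1 mg/ml) before activity readout. RCC I (rotenone-sensitive fraction) and I/V: A340, and RCC II: A600, each every 1 min for 6 min; RCC III/IV: A550 every 10 s for 2 min. Activities relative to DMSO control set as 1.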

[4] = test system: RCC III; experiment: RCC III activity in submitochondrial particles; format: biochemical, rat; design: key to RCC III at 100XCmax: activity relative to DMSO-treated controls (control set as 1 = 100%); conditions: 100XCmax
Method in brief: as §1

[5] = test system: isolated rat liver mitochondria; experiment: Mitochondrial ROS production (CM-H2DCFDA); conditions: DMSO treated samples set as 1
[6] = test system: RCC V; experiment: RCC V activity in submitochondrial particles; format: biochemical, rat; as to RCC V at 5XCmax: key: 0 indicates that the drug had no effects (negative)
Method in brief: as §1

[7] = test system: RCC IV; experiment: RCC IV activity in submitochondrial particles; format: biochemical, rat; design: key to RCC IV at 50XCmax / RCC IV at 100XCmax: activity relative to DMSO-treated controls (control set as 1 = 100%); conditions: 50XCmax, in %
Method in brief: as §1

[8] = cited from earlier work
[9] = test system: isolated rat liver mitochondria; conditions: positive control alamethicin treated samples
[10] = 1XCmax, DMSO treated samples set as 1
[11] = 2.5XCmax, DMSO treated samples set as 1
[12] = 5XCmax, DMSO treated samples set as 1
[13] = 10XCmax, DMSO treated samples set as 1
[14] = 20XCmax, DMSO treated samples set as 1
[15] = 30XCmax, DMSO treated samples set as 1
[16] = 50XCmax, DMSO treated samples set as 1
[17] = 100XCmax, DMSO treated samples set as 1
[18] = relative to DMSO treated samples

T1 sequence (Q920L2 35-656): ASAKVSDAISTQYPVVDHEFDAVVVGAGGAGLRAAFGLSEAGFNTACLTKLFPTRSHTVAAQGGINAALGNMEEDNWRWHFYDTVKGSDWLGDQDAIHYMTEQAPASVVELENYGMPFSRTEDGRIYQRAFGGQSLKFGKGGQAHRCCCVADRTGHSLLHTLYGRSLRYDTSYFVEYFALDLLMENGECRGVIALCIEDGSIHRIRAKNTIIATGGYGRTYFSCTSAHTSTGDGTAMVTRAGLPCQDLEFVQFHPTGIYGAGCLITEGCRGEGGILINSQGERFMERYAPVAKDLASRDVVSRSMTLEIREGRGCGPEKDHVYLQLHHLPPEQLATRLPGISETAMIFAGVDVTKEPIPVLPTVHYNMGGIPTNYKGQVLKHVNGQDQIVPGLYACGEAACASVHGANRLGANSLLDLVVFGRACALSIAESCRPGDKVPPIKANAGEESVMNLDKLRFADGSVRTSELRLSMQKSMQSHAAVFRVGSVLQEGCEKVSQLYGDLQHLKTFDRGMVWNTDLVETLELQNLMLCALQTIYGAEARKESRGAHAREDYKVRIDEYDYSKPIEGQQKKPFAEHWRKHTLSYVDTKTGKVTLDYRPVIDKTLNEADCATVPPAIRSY
T1 sequence (P21913 31-282): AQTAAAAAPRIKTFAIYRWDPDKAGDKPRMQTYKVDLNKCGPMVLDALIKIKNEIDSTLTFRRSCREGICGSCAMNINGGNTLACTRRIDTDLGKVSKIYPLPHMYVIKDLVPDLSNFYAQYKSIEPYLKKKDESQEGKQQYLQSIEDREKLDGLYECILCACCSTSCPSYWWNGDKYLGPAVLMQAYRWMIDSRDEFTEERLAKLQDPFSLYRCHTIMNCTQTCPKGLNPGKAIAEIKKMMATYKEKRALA
T1 sequence (Q641Z9 1-169): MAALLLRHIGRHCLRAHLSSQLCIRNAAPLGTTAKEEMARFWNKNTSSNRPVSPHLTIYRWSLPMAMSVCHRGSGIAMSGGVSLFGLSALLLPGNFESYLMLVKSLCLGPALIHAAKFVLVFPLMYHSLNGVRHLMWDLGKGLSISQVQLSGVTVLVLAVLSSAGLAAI
T1 sequence (Q6PCT8 57-159): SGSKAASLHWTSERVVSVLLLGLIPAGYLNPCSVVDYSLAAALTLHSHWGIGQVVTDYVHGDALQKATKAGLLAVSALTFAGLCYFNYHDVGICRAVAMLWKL

CNC(=O)c1ccccc1Sc1ccc2c(/C=C/c3ccccn3)n[nH]c2c1 [Axitinib]
State 3 respiration driven by glutamate/malate at 1XCmax [1, 10]: 0
State 3 respiration driven by succinate at 1XCmax [1, 10]: 0
State 4 respiration driven by glutamate/malate at 1XCmax [1, 10]: 0
State 4 respiration driven by succinate at 1XCmax [1, 10]: 0
State 3 respiration driven by glutamate/malate at 2.5XCmax [1, 11]: 0
State 3 respiration driven by succinate at 2.5XCmax [1, 11]: 0
State 4 respiration driven by glutamate/malate at 2.5XCmax [1, 11]: 0
State 4 respiration driven by succinate at 2.5XCmax [1, 11]: 0
State 3 respiration driven by glutamate/malate at 5XCmax [1, 12]: 0
State 3 respiration driven by succinate at 5XCmax [1, 12]: 0
State 4 respiration driven by glutamate/malate at 5XCmax [1, 12]: 0
State 4 respiration driven by succinate at 5XCmax [1, 12]: 0
State 3 respiration driven by glutamate/malate at 10XCmax [1, 13]: 0
State 3 respiration driven by succinate at 10XCmax [1, 13]: 0
State 4 respiration driven by glutamate/malate at 10XCmax [1, 13]: 0
State 4 respiration driven by succinate at 10XCmax [1, 13]: 0
State 3 respiration driven by glutamate/malate at 20XCmax [1, 14]: 0
State 3 respiration driven by succinate at 20XCmax [1, 14]: 0
State 4 respiration driven by glutamate/malate at 20XCmax [1, 14]: 0
State 4 respiration driven by succinate at 20XCmax [1, 14]: 0
State 3 respiration driven by glutamate/malate at 30XCmax [1, 15]: 0
State 3 respiration driven by succinate at 30XCmax [1, 15]: 0
State 4 respiration driven by glutamate/malate at 30XCmax [1, 15]: 0
State 4 respiration driven by succinate at 30XCmax [1, 15]: 0
State 3 respiration driven by glutamate/malate at 50XCmax [1, 16]: 0
State 3 respiration driven by succinate at 50XCmax [1, 16]: 0
State 4 respiration driven by glutamate/malate at 50XCmax [1, 16]: 0
State 4 respiration driven by succinate at 50XCmax [1, 16]: 0
State 3 respiration driven by glutamate/malate at 100XCmax [1, 17]: 0
State 3 respiration driven by succinate at 100XCmax [1, 17]: 0
State 4 respiration driven by glutamate/malate at 100XCmax [1, 17]: 0
State 4 respiration driven by succinate at 100XCmax [1, 17]: 0
MMP measured by Rhodamine 123 at 1XCmax [2]: 0
MMP measured by Rhodamine 123 at 2.5XCmax [2]: 0
MMP measured by Rhodamine 123 at 5XCmax [2]: 0
MMP measured by Rhodamine 123 at 10XCmax [2]: 0
MMP measured by Rhodamine 123 at 20XCmax [2]: 0
MMP measured by Rhodamine 123 at 30XCmax [2]: 0
MMP measured by Rhodamine 123 at 50XCmax [2]: 0
MMP measured by Rhodamine 123 at 100XCmax [2]: 0
RCC II at 1.0XCmax [3, 18]: 0
RCC II at 2.5XCmax [3, 18]: 0
RCC II at 5XCmax [3, 18]: 0
RCC II at 10XCmax [3, 18]: 0
RCC II at 20XCmax [3, 18]: 0
RCC II at 30XCmax [3, 18]: 0
RCC II at 50XCmax [3, 18]: 0
RCC II at 100XCmax [3, 18]: 0
RCC III at 100XCmax [4, 18]: 0
ROS measured by CM-H2DCFDA at 1XCmax [5]: 0
ROS measured by CM-H2DCFDA at 2.5XCmax [5]: 0
ROS measured by CM-H2DCFDA at 5XCmax [5]: 0
ROS measured by CM-H2DCFDA at 10XCmax [5]: 0
ROS measured by CM-H2DCFDA at 20XCmax [5]: 0
ROS measured by CM-H2DCFDA at 30XCmax [5]: 0
ROS measured by CM-H2DCFDA at 50XCmax [5]: 0
ROS measured by CM-H2DCFDA at 100XCmax [5]: 0
RCC V at 5XCmax [6, 18]: 0
RCC V at 50XCmax [6, 18]: 0
RCC IV at 50XCmax [7, 18]: 0
DILI potential (based on labeling) ([8]; 1 = DILI positive, 0 = negative, ref product labeling): 1
Labeling for DILI ([8]; BBW: black box warning, W&P: Warnings and Precautions, ref product labeling): W&P: ALT↑
labeling for DILI ([8]; W&P warnings and precautions, BBW black box warnings, ref FDA product labeling): W&P: ALT↑/monitoring
DILI potential (based on labeling) ([8]; ref FDA product labeling): 1
Cytochrome c release 1XCmax [9]: 0
Cytochrome c release 2.5XCmax [9]: 0
Cytochrome c release 5XCmax [9]: 0
Cytochrome c release 10XCmax [9]: 0
Cytochrome c release 20XCmax [9]: 0
Cytochrome c release 30XCmax [9]: 0
Cytochrome c release 50XCmax [9]: 0
Cytochrome c release 100XCmax [9]: 0

COc1cc2nccc(Oc3ccc(NC(=O)NC4CC4)c(Cl)c3)c2cc1C(N)=O [Lenvatinib]
State 3 respiration driven by succinate at 1XCmax [1, 10]: 0
State 4 respiration driven by succinate at 1XCmax [1, 10]: 0
State 3 respiration driven by succinate at 2.5XCmax [1, 11]: 0
State 4 respiration driven by succinate at 2.5XCmax [1, 11]: 0
State 3 respiration driven by succinate at 5XCmax [1, 12]: 0
State 4 respiration driven by succinate at 5XCmax [1, 12]: 0
State 3 respiration driven by succinate at 10XCmax [1, 13]: 0
State 4 respiration driven by succinate at 10XCmax [1, 13]: 0
State 3 respiration driven by succinate at 20XCmax [1, 14]: 0
State 4 respiration driven by succinate at 20XCmax [1, 14]: 0
Glutamate/malate driven respiration State 3 ([1]; 30-fold Cmax): 0.76 ± 0.05
Glutamate/malate driven respiration State 4 ([1]; 30-fold Cmax): 0.95 ± 0.06
Succinate-driven respiration State 3 ([1]; 30-fold Cmax): 0.86 ± 0.04
Succinate-driven respiration State 4 ([1]; 30-fold Cmax): 0.94 ± 0.01
State 3 respiration driven by glutamate/malate at 30XCmax [1, 15]: 0.76±0.05
State 3 respiration driven by succinate at 30XCmax [1, 15]: 0
State 4 respiration driven by succinate at 30XCmax [1, 15]: 0
Glutamate/malate driven respiration State 3 ([1]; 50-fold Cmax): 0.70 ± 0.02
Glutamate/malate driven respiration State 4 ([1]; 50-fold Cmax): 0.93 ± 0.01
Succinate-driven respiration State 3 ([1]; 50-fold Cmax): 0.90 ± 0.01
Succinate-driven respiration State 4 ([1]; 50-fold Cmax): 0.96 ± 0.03
State 3 respiration driven by glutamate/malate at 50XCmax [1, 16]: 0.70±0.02
State 3 respiration driven by succinate at 50XCmax [1, 16]: 0
State 4 respiration driven by succinate at 50XCmax [1, 16]: 0
Glutamate/malate driven respiration State 3 ([1]; 100-fold Cmax): 0.74 ± 0.04
Glutamate/malate driven respiration State 4 ([1]; 100-fold Cmax): 1.06 ± 0.06
Succinate-driven respiration State 3 ([1]; 100-fold Cmax): 0.99 ± 0.03
Succinate-driven respiration State 4 ([1]; 100-fold Cmax): 1.07 ± 0.03
State 3 respiration driven by glutamate/malate at 100XCmax [1, 17]: 0.74±0.04
State 3 respiration driven by succinate at 100XCmax [1, 17]: 0
State 4 respiration driven by succinate at 100XCmax [1, 17]: 0
lowest concentration significantly affecting mitochondrial oxygen consumption ([1]; tested at 1 to 100-fold Cmax): 30 fold Cmax
MMP measured by Rhodamine 123 at 1XCmax [2]: 0
MMP measured by Rhodamine 123 at 2.5XCmax [2]: 0
MMP measured by Rhodamine 123 at 5XCmax [2]: 0
MMP measured by Rhodamine 123 at 10XCmax [2]: 0
MMP measured by Rhodamine 123 at 20XCmax [2]: 0
MMP measured by Rhodamine 123 at 30XCmax [2]: 0
MMP measured by Rhodamine 123 at 50XCmax [2]: 0
MMP measured by Rhodamine 123 at 100XCmax [2]: 0
RCC II at 1.0XCmax ([3]; DMSO treated samples set as 1): 0
RCC II at 2.5XCmax ([3]; DMSO treated samples set as 1): 0
RCC II at 5XCmax ([3]; DMSO treated samples set as 1): 0
RCC II at 10XCmax ([3]; DMSO treated samples set as 1): 0
RCC II at 20XCmax ([3]; DMSO treated samples set as 1): 0
RCC II at 30XCmax ([3]; DMSO treated samples set as 1): 0
RCC II at 50XCmax ([3]; DMSO treated samples set as 1): 0
RCC II at 100XCmax ([3]; DMSO treated samples set as 1): 0
RCC III at 100XCmax [4]: 0
ROS measured by CM-H2DCFDA at 1XCmax [5]: 0
ROS measured by CM-H2DCFDA at 2.5XCmax [5]: 0
ROS measured by CM-H2DCFDA at 5XCmax [5]: 0
ROS measured by CM-H2DCFDA at 10XCmax [5]: 0
ROS measured by CM-H2DCFDA at 20XCmax [5]: 0
ROS measured by CM-H2DCFDA at 30XCmax [5]: 0
ROS measured by CM-H2DCFDA at 50XCmax [5]: 0
ROS measured by CM-H2DCFDA at 100XCmax [5]: 0
RCC V at 5XCmax ([6]; DMSO treated samples set as 1): 0
RCC V at 50XCmax ([6]; DMSO treated samples set as 1): 0
RCC IV at 50XCmax ([7]; DMSO treated samples set as 1): 0
Cytochrome c release 1XCmax [9]: 0
Cytochrome c release 2.5XCmax [9]: 0
Cytochrome c release 5XCmax [9]: 0
Cytochrome c release 10XCmax [9]: 0
Cytochrome c release 20XCmax [9]: 0
Cytochrome c release 30XCmax [9]: 0
Cytochrome c release 50XCmax [9]: 0
Cytochrome c release 100XCmax [9]: 0
